Test results published in publication PMC5967867, “An NMDAR positive and negative allosteric modulator series share a binding site and are interconverted by methyl groups” (eLife, 2018).
Where “and” joins values, the source holds several entries; their conditions need not be identical. Equal entries are not always repeated. Where two headings read alike, the source gives them in different places. Marks after values point to notes of the source that are not given here.

Key:
Assay type in all cases: cell-based
GluN1/GluN2A NMDARs = GluN1/GluN2A NMDARs (Rattus norvegicus, UniProt P35439+Q00959); test: Two-electrode voltage-clamp recordings, Xenopus laevis oocytes expressing GluN1/GluN2A; settings: for IC50: glutamate/glycine 100/30 µM; for EC50: read-out: EC50 (µM) [conf. int.]; for Emax: read-out: Maximal Degree of Modulation (% of control)
Chain of GluN1/GluN2A NMDARs (Q00959 23-1464, other chains not shown): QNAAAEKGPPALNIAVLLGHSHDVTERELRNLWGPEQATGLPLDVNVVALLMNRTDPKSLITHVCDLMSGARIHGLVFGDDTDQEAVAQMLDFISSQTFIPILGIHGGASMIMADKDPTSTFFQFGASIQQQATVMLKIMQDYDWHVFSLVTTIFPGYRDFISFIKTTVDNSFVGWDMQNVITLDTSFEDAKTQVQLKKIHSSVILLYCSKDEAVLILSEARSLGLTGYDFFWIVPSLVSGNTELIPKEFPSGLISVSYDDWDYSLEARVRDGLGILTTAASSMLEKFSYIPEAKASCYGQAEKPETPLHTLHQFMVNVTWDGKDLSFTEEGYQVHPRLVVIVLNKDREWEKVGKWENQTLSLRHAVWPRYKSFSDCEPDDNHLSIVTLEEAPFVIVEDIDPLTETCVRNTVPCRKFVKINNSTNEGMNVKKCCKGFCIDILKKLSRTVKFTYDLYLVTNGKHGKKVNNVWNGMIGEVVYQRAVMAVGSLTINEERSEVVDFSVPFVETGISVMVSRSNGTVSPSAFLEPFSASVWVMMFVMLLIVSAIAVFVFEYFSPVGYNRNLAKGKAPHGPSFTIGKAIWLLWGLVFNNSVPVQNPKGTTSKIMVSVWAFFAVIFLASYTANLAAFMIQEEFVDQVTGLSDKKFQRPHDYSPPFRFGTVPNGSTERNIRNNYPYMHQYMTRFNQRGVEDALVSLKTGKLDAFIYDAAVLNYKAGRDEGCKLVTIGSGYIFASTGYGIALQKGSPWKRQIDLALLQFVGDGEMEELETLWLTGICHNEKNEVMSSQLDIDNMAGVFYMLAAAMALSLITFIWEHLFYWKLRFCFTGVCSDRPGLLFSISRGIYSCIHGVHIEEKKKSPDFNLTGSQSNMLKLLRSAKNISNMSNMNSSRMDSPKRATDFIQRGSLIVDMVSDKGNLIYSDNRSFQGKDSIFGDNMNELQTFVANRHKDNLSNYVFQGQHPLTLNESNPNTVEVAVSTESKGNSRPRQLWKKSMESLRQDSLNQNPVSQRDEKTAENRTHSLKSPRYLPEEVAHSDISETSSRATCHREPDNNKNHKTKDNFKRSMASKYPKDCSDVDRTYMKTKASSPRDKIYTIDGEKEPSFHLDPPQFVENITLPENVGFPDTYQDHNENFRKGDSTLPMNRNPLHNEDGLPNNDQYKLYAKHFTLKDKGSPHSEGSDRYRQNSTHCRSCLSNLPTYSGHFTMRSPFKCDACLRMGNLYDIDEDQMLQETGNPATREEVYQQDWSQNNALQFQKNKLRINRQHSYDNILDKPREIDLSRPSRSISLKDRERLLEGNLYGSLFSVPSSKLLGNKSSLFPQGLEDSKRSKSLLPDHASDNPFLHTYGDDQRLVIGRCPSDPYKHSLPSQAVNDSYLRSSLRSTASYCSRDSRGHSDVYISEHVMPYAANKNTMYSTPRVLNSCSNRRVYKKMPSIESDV
Method: (§1) cDNAs for rat wild type NMDAR subunits GluN1-1a (GenBank U11418, U08261; hereafter GluN1 or GluN1a), GluN1-1b (U08263, hereafter GluN1b), GluN2A (D13211), GluN2B (U11419), GluN2C (M91563), and GluN2D (L31611, modified as described in [Monyer et al., 1994]) were provided by Drs. S. Heinemann (Salk Institute), S. Nakanishi (Kyoto University), and P. Seeburg (University of Heidelberg). Site-directed mutagenesis was conducted using the QuikChange kit (Agilent Technologies, Santa Clara, CA) following the recommended protocol. DNA sequencing was used to verify all mutations. The amino acid numbering system started with the initiating methionine as residue number one. For expression in Xenopus laevis oocytes, cDNA constructs were linearized by restriction enzymes, and subsequently used to synthesize in vitro cRNAs following the manufacturer’s protocol (mMessage mMachine, Ambion, ThermoFisher Scientific, Waltham, MA).
(§2) Xenopus laevis stage VI oocytes (Ecocyte Biosciences, Austin, TX) were injected as previously described ([Hansen et al., 2013]) 2–7 days prior to recording with cRNA encoding the NMDAR subunits and stored at 15°C in media containing (in mM) 88 NaCl, 2.4 NaHCO3, 1 KCl, 0.33 Ca(NO3)2, 0.41 CaCl2, 0.82 MgSO4, 5 Tris-HCl; pH was adjusted to 7.4 with NaOH and the solution supplemented with 1 U/mL penicillin, 0.1 mg/mL gentamicin sulfate, and 1 μg/mL streptomycin. Two-electrode voltage-clamp recordings were performed at room temperature (21–23°C) using different internal solutions for voltage and current electrodes (0.3 M and 3.0 M KCl, respectively). All extracellular solutions were made from a solution containing (in mM) 90 NaCl, 1 KCl, 10 HEPES, 0.5 BaCl2, 0.01 EDTA (pH 7.4 with NaOH). Experiments were performed using an eight port Modular Valve Positioner (Hamilton Company, Reno, NV) and controlled by custom software (Easy Oocyte, Emory University, Atlanta, GA)to exchange solutions. Oocyte currents were recorded at a holding potential of −40 mV using a two-electrode voltage-clamp amplifier (OC-725B or OC-725C, Warner Instruments, Hamden, CT). […] In MTSEA experiments, fresh MTSEA solutions (0.2 mM) were prepared and utilized in less than 30 min to limit compound degradation.
(§3) Measurements are given as mean ± SEM unless otherwise indicated. The number of replicate experiments used was chosen to ensure a power level of at least 0.80 when α = 0.05 and when detecting appropriate effect sizes. EC50 and IC50 values and confidence intervals reported were calculated by averaging the log(EC50) or log(IC50) value, determining confidence intervals for mean log(EC50) or log(IC50), and converting back to units of molarity. Statistical significance evaluations (α set to 0.05) were performed using a one-way ANOVA with Dunnett’s multiple comparison test, a paired t–test, or other appropriate tests as described.

GluN1/GluN2B NMDARs = GluN1/GluN2B NMDARs (Rattus norvegicus, UniProt P35439+Q00960); test: Two-electrode voltage-clamp recordings, Xenopus laevis oocytes expressing GluN1/GluN2B; settings: for Emax: read-out: Maximal Degree of Modulation (% of control)
Chain of GluN1/GluN2B NMDARs (Q00960 27-1482, other chains not shown): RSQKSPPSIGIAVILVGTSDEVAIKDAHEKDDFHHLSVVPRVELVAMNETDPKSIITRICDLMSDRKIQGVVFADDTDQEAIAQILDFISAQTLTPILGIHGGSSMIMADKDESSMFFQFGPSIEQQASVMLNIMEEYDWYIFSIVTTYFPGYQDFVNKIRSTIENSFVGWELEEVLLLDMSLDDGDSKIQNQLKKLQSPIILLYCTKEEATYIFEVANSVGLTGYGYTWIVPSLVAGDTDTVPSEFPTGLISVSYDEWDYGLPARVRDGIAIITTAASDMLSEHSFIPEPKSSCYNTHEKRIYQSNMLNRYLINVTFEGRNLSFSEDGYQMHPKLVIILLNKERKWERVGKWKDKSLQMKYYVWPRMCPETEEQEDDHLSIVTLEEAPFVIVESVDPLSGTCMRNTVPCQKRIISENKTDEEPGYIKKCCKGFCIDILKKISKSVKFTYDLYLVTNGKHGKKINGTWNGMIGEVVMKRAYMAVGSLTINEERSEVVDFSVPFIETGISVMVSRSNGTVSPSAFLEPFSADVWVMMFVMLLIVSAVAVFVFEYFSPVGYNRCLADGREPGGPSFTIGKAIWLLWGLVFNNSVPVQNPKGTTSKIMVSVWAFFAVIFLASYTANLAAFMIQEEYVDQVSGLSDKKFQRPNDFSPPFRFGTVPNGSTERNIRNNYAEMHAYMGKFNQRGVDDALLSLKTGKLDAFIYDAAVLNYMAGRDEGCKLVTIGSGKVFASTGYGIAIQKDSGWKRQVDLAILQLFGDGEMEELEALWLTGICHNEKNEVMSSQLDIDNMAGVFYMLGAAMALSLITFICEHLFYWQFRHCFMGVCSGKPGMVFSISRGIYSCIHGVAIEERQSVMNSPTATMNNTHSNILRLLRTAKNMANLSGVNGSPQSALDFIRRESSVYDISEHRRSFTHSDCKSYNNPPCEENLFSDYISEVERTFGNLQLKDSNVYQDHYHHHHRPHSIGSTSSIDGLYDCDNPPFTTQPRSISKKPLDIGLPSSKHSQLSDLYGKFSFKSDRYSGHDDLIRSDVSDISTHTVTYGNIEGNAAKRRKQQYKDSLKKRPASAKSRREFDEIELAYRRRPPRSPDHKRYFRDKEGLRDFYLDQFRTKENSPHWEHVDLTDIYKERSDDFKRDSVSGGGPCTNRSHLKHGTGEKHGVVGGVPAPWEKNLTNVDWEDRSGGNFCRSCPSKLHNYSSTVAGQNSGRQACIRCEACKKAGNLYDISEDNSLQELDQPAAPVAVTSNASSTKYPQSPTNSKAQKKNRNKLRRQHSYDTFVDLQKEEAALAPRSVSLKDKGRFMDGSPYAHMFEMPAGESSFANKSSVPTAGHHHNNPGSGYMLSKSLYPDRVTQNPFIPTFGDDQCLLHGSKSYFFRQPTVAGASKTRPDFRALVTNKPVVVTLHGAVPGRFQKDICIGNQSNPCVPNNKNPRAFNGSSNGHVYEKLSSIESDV
Method: as §1, §2, §3

GluN1/GluN2D NMDARs = GluN1/GluN2D NMDARs (Rattus norvegicus, UniProt P35439+Q62645); test: Whole cell patch-clamp recordings, HEK293 cells expressing GluN1/GluN2D; settings: for kon / koff: HEK293; for kon: read-out: association rate kon; for koff: read-out: dissociation rate koff; for Kd: calculated from association and dissociation rates, HEK cells, read-out: kinetically-determined affinity constant Kd
Chain of GluN1/GluN2D NMDARs (Q62645 28-1323, other chains not shown): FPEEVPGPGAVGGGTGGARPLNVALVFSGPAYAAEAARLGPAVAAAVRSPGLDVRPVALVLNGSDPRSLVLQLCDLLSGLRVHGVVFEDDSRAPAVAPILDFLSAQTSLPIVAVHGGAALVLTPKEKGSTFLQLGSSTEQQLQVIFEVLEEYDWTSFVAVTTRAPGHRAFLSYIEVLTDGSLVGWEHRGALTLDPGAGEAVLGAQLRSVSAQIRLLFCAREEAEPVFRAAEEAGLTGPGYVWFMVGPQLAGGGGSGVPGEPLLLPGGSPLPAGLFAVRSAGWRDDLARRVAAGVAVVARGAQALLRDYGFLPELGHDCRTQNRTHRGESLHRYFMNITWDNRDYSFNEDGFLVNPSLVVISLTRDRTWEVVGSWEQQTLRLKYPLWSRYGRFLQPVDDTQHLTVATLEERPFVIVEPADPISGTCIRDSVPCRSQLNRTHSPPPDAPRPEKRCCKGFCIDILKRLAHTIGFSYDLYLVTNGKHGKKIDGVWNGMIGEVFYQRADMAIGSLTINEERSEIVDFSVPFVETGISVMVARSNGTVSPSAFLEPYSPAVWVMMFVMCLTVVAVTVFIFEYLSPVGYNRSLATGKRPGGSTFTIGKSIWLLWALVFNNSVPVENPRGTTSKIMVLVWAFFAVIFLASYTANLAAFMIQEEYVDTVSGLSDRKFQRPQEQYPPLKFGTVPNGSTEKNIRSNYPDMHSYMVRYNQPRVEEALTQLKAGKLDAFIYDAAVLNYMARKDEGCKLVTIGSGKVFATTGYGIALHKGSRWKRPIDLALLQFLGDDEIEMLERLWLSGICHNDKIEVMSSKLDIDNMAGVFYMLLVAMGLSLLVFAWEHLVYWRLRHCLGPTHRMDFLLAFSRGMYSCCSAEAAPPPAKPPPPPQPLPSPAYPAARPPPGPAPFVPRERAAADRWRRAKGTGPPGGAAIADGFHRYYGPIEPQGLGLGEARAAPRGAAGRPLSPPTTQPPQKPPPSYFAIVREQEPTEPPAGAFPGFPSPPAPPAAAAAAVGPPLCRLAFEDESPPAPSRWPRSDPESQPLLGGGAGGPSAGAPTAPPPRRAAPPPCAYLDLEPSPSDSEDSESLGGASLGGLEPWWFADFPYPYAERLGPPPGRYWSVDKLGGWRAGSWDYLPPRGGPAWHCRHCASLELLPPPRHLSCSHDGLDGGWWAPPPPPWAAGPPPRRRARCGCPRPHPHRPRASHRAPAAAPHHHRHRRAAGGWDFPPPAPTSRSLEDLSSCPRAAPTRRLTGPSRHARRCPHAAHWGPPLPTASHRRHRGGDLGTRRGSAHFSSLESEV
Method: We studied NMDARs expressed in HEK293 cells to investigate the time course of modulator action. […] These modulators were tested on GluN1/GluN2A and GluN1/GluN2D to see whether there were differences in modulation given the distinct properties of these NMDAR subtypes. […] The time-course of modulator binding of EU1794-2, EU1794-4 and EU1794-27 was also determined for GluN1/GluN2A (Figure 4C,D).
as §1
HEK293 cells (CRL-1573, ATCC, Manassas, VA) were maintained in a tissue culture room solely reserved for their culturing and transfected using a CaPO4 protocol to express the diheteromeric NMDARs as previously described ([Hansen et al., 2013]). Cell lines were obtained directly from the supplier, were expanded, frozen and kept in liquid nitrogen in a dewar. Mycoplasma testing was not performed. cDNA ratios for transfection were 1:1:1 (GluN2D) or 1:1:5 (GluN2A) for GluN1:GluN2:GFP.

[1] = no second modulator (+EU1794-27 0 µM), read-out: IC50 (µM) [conf. int.]
[2] = saturating glutamate/glycine 100/30 µM, mean [95% CI], - = not fit, response at 30 µM differed by no more than 15% from control
[3] = saturating glutamate/glycine 100/30 µM, mean ± SEM
[4] = sub-saturating glutamate/glycine 0.6/0.2 µM
[5] = read-out: IC50 (µM) [conf. int.]
[6] = saturating glutamate/glycine 100/30 µM, mean [95% CI], - = not fit, response at 30 µM differed by no more than 15% from control, read-out: EC50 (µM) [conf. int.]
[7] = sub-saturating glutamate/glycine 2/0.6 µM
[8] = sub-saturating glutamate/glycine 1/0.3 µM, read-out: EC50 (µM) [conf. int.]
[9] = sub-saturating glutamate/glycine 1/0.3 µM
[10] = concentration dependence of linear component of time course

Row | IC50 (GluN1/GluN2A NMDARs; [1]) | EC50 (GluN1/GluN2A NMDARs; [2]) | Emax (GluN1/GluN2A NMDARs; [3]) | IC50 (GluN1/GluN2B NMDARs; [5]) | EC50 (GluN1/GluN2B NMDARs; [6]) | Emax (GluN1/GluN2B NMDARs; [3]) | kon (GluN1/GluN2D NMDARs) | koff (GluN1/GluN2D NMDARs) | Kd (GluN1/GluN2D NMDARs) | EC50 (GluN1/GluN2B NMDARs; [8]) | Emax (GluN1/GluN2B NMDARs; [9]) | Compound | further results
1 | 0.6 µM | 0.6 µM | 6% | 1.2 µM | 1.2 µM | 10% | 430000 M⁻¹ s⁻¹ | 0.495 s⁻¹ | 1.1 µM and 1.14 µM | – | – | CCOC(=O)c1c(NC(=O)CC2SC(=N)NC2=O)sc2c1CCC(C)C2 (stereo not drawn) [EU1794-2, ethyl 2-(2-(2-imino-4-oxothiazolidin-5-yl)acetamido)-6-methyl-4,5,6,7-tetrahydrobenzo[b]thiophene-3-carboxylate] | IC50 (GluN1/GluN2A NMDARs; +EU1794-27 3 µM, read-out: EU1794-2 IC50 (µM) [conf. int.]): 2.5 µM; IC50 (GluN1/GluN2A NMDARs; +EU1794-27 10 µM, read-out: EU1794-2 IC50 (µM) [conf. int.]): 3.6 µM; IC50 (GluN1/GluN2A NMDARs; +EU1794-27 20 µM, read-out: EU1794-2 IC50 (µM) [conf. int.]): 8 µM; EC50 (GluN1/GluN2A NMDARs; [4]): 1.8 µM; Emax (GluN1/GluN2A NMDARs; [4]): 37%; IC50 (GluN1/GluN2B NMDARs; +EU1794-27 10 µM, glutamate/glycine 100/30 µM, read-out: EU1794-2 IC50 (µM) [conf. int.]): 3.5 µM; IC50 (GluN1/GluN2B NMDARs; +EU1794-27 20 µM, glutamate/glycine 100/30 µM, read-out: EU1794-2 IC50 (µM) [conf. int.]): 12 µM; EC50 (GluN1/GluN2B NMDARs; sub-saturating glutamate/glycine 0.6/0.2 µM, read-out: EC50 (µM) [conf. int.]): 1.4 µM; Emax (GluN1/GluN2B NMDARs; [4]): 28%
2 | – | 7.4 µM | 52% | – | 1.4 µM | 130% | 187000 M⁻¹ s⁻¹ | 0.802 s⁻¹ | 4.3 µM | 6.3 µM | 400% | CC(C)(C)OC(=O)c1c(NC(=O)CC2SC(=N)NC2=O)sc2c1CCCC2 (stereo not drawn) [EU1794-27, tert-butyl 2-(2-(2-imino-4-oxothiazolidin-5-yl)acetamido)-4,5,6,7-tetrahydrobenzo[b]thiophene-3-carboxylate] | Fold Difference (glutamate EC50) (GluN1/GluN2A NMDARs; control vs 10 µM EU1794-27): 2.3^†; Fold Difference (glycine EC50) (GluN1/GluN2A NMDARs; control vs 10 µM EU1794-27): 1.6; EC50 (GluN1/GluN2A NMDARs; [7]): 8.1 µM; Emax (GluN1/GluN2A NMDARs; [7]): 340%; EC50 (GluN1/GluN2B NMDARs; +EU1794-2 1 µM, glutamate/glycine 100/30 µM, read-out: EU1794-27 EC50 (µM) [conf. int.]): 6 µM; EC50 (GluN1/GluN2B NMDARs; +EU1794-2 3 µM, glutamate/glycine 100/30 µM, read-out: EU1794-27 EC50 (µM) [conf. int.]): 8.4 µM; Fold Difference (glutamate EC50) (GluN1/GluN2B NMDARs; control vs 10 µM EU1794-27): 2.0^†; Fold Difference (glycine EC50) (GluN1/GluN2B NMDARs; control vs 10 µM EU1794-27): 2.9^†; association linear component slope mon (GluN1/GluN2D NMDARs; [10]): −0.98 pA/(ms*µM); dissociation linear component slope moff (GluN1/GluN2D NMDARs; [10]): 0.62 pA/(ms*µM)
3 | 2.2 µM | 2.2 µM | 32% | 2.6 µM | 2.6 µM | 67% | 1.12e+06 M⁻¹ s⁻¹ | 4.66 s⁻¹ | 4.2 µM and 4.16 µM | 4.3 µM | 210% | CCOC(=O)c1c(NC(=O)CC2SC(=N)NC2=O)sc2c1CCCC2 (stereo not drawn) [EU1794-4, ethyl 2-(2-(2-imino-4-oxothiazolidin-5-yl)acetamido)-4,5,6,7-tetrahydrobenzo[b]thiophene-3-carboxylate] | Fold Difference (glutamate EC50) (GluN1/GluN2A NMDARs; control vs 10 µM EU1794-4): 2.4^†; Fold Difference (glycine EC50) (GluN1/GluN2A NMDARs; control vs 10 µM EU1794-4): 2.8^†; EC50 (GluN1/GluN2A NMDARs; [9]): 3.9 µM; Emax (GluN1/GluN2A NMDARs; [9]): 500%; Fold Difference (glutamate EC50) (GluN1/GluN2B NMDARs; control vs 10 µM EU1794-4): 2.0^†; Fold Difference (glycine EC50) (GluN1/GluN2B NMDARs; control vs 10 µM EU1794-4): 3.3^†
